Tested on: human AML cell line MV4;11
Assay: Nude mouse xenograft model derived from human AML cell line MV4;11 (tumor growth)
Format: in vivo
Settings: MV4;11 s.c. xenograft in nude mice; Volasertib 20 mg/kg once a week i.v., Quizartinib 5 or 10 mg/kg daily p.o.; treated 14 days, observation without treatment up to day 87
Description: Median tumor volumes are plotted over time. Day 1 was the first day, day 87 the last day of the experiment.
MV4;11 (CRL-9591) cells were obtained from ATCC. […] Cells were cultured in T175 tissue culture flasks at 37° C. and 5% CO2. The medium used was IMDM supplemented with 10% fetal calf serum, 1% NEAA, 1% sodium pyruvate and 1% glutamine.
Mice were 8 week-old athymic female BomTac: NMRI-Foxn1^nu purchased from Taconic, Denmark. After arrival in the animal facility, mice were allowed to adjust to ambient conditions for at least 3 days before they were used for experiments. They were housed in Macrolon® type II cages in groups of 5 under standardized conditions at 21.5±1.5° C. temperature and 55±10% humidity. Standardized diet (PROVIMI KLIBA) and autoclaved tap water were provided ad libitum.
To establish subcutaneous tumors, MV4;11 cells were harvested and resuspended in PBS+5% FCS at 5×10^7 cells/ml. 50 μl of the cell suspension containing 2.5×10^6 cells was then injected subcutaneously into the right flank of the mice (1 site per mouse). […]
The tumor diameter was measured three times a week with a caliper. The volume of each tumor [in mm^3] was calculated according to the formula “tumor volume=length*diameter^2*π/6”. To monitor side effects of treatment, mice were inspected daily for abnormalities and body weight was determined three times a week. […]

Compound: CC(C)(C)c1cc(NC(=O)Nc2ccc(-c3cn4c(n3)sc3cc(OCCN5CCOCC5)ccc34)cc2)no1 [Quizartinib]
- tumor growth kinetics (median tumor volumes over time): outgrowth of the tumor

— patent US9867831B2, “Combination treatment of acute myeloid leukemia and myelodysplastic syndrome” (Boehringer Ingelheim International GmbH, priority 2014, dated 2018)
